Results taken from patent US11084800B2 (Achillion Pharmaceuticals, Inc., priority 2017, dated 2021).

The compounds below were run against Human Factor D (Homo sapiens (Human), UniProt P00746) (assay: Human Factor D Assay). Conditions: Table 6; Factor D 80 nM, substrate Z-L-Lys-SBz; read-out: IC50.
Assay type: biochemical
In short: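 Thioester substrate Z-L-Lys-SBz (100 μM) with Ellman's reagent DTNB (100 μM) reports activity of 80 nM human serum-derived enzyme, kinetically at 405 nm over 30 min. Compound preincubated 5 min, room temperature, pH 7.5 Tris/1 M NaCl; IC50 by nonlinear fit of rates.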

Chain of Human Factor D (P00746 26-253): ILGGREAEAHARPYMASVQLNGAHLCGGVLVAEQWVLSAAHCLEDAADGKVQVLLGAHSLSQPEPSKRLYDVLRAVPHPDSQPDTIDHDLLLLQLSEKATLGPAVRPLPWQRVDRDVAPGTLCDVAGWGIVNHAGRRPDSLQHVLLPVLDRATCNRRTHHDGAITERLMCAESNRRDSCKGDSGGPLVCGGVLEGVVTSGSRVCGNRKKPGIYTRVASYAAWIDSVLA

Row | Structure (SMILES) | IC50
1 | CC(=O)c1nn(CC(=O)N2[C@H](C(=O)Nc3nc(Br)ccc3C)C[C@@]3(C)C[C@@H]23)c2c(C(F)(F)F)cc(-c3cnc(C)nc3)cc12 [Compound 133, (1R,3S,5R)-2-(2-(3-Acetyl-5-(2-methylpyrimidin-5-yl)-7-(trifluoromethyl)-1H-indazol-1-yl)acetyl)-N-(6-bromo-3-methylpyridin-2-yl)-5-methyl-2-azabicyclo[3.1.0]hexane-3-carboxamide] | < 1 µM
2 | C=CCOCc1ccc(Br)nc1NC(=O)[C@@H]1C[C@@]2(C=C)C[C@H]2N1C(=O)Cn1nc(C(C)=O)c2cc(-c3cnc(C)nc3)ccc21 [Compound 134, (1R,3S,5R)-2-(2-(3-Acetyl-5-(2-methylpyrimidin-5-yl)-1H-indazol-1-yl)acetyl)-N-(3-((allyloxy)methyl)-6-bromopyridin-2-yl)-5-vinyl-2-azabicyclo[3.1.0]hexane-3-carboxamide] | < 1 µM
3 | CC(=O)c1nn(CC(=O)N2[C@H](C(=O)Nc3nc(Cl)ccc3CN(C)C)C[C@@]3(C)C[C@@H]23)c2ccc(-c3cnc(C)nc3)cc12 [Compound 135, (1R,3S,5R)-2-(2-(3-Acetyl-5-(2-methylpyrimidin-5-yl)-1H-indazol-1-yl)acetyl)-N-(6-chloro-3-((dimethylamino)methyl)pyridin-2-yl)-5-methyl-2-azabicyclo[3.1.0]hexane-3-carboxamide] | < 1 µM
4 | CC(=O)c1nn(CC(=O)N2[C@H](C(=O)Nc3nc(Br)ccc3CN(C)C)C[C@@]3(C)C[C@@H]23)c2c(C)cc(-c3cnc(C)nc3)cc12 [Compound 136, (1R,3S,5R)-2-(2-(3-Acetyl-7-methyl-5-(2-methylpyrimidin-5-yl)-1H-indazol-1-yl)acetyl)-N-(6-bromo-3-((dimethylamino)methyl)pyridin-2-yl)-5-methyl-2-azabicyclo[3.1.0]hexane-3-carboxamide] | < 1 µM
5 | CC(=O)c1nn(CC(=O)N2[C@H](C(=O)Nc3nc(Cl)ccc3CN(C)C)C[C@@]3(C)C[C@@H]23)c2c(C)cc(-c3cnc(C)nc3)cc12 [Compound 137, (1R,3S,5R)-2-(2-(3-Acetyl-7-methyl-5-(2-methylpyrimidin-5-yl)-1H-indazol-1-yl)acetyl)-N-(6-chloro-3-((dimethylamino)methyl)pyridin-2-yl)-5-methyl-2-azabicyclo[3.1.0]hexane-3-carboxamide] | < 1 µM
6 | CC(=O)c1nn(CC(=O)N2[C@H](C(=O)Nc3nc(Br)ccc3CN3CCOCC3)C[C@@]3(C)C[C@@H]23)c2ccc(-c3cnc(C)nc3)cc12 [Compound 138, (1R,3S,5R)-2-(2-(3-Acetyl-5-(2-methylpyrimidin-5-yl)-1H-indazol-1-yl)acetyl)-N-(6-bromo-3-(morpholinomethyl)pyridin-2-yl)-5-methyl-2-azabicyclo[3.1.0]hexane-3-carboxamide] | < 1 µM
7 | CC(=O)c1nn(CC(=O)N2[C@H](C(=O)Nc3nc(Cl)ccc3CN3CCOCC3)C[C@@]3(C)C[C@@H]23)c2ccc(-c3cnc(C)nc3)cc12 [Compound 139, (1R,3S,5R)-2-(2-(3-Acetyl-5-(2-methylpyrimidin-5-yl)-1H-indazol-1-yl)acetyl)-N-(6-chloro-3-(morpholinomethyl)pyridin-2-yl)-5-methyl-2-azabicyclo[3.1.0]hexane-3-carboxamide] | < 1 µM
8 | Cc1ncc(-c2cc(C)c3c(c2)c(C(C)O)nn3CC(=O)N2[C@H](C(=O)Nc3nc(Br)ccc3C)C[C@@]3(C)C[C@@H]23)cn1 (stereo partly shown) [Compound 140] | < 1 µM
9 | CC(=O)c1nn(CC(=O)N2C[C@H]3C[C@H]3[C@H]2C(=O)Nc2nc(Br)ccc2C)c2cnc(-c3cnc(C)nc3)cc12 [Compound 141, (1R,2S,5S)-3-(2-(3-Acetyl-5-(2-methylpyrimidin-5-yl)-1H-pyrazolo[3,4-c]pyridin-1-yl)acetyl)-N-(6-bromo-3-methylpyridin-2-yl)-3-azabicyclo[3.1.0]hexane-2-carboxamide] | < 1 µM
10 | CC(=O)c1nn(CC(=O)N2[C@H](C(=O)Nc3nc(Br)ccc3C)C[C@@]3(CN4CC5(CCCC5)C4)C[C@@H]23)c2ccc(-c3cnc(C)nc3)cc12 [Compound 142, (1R,3S,5R)-5-(2-Azaspiro[3.4]octan-2-ylmethyl)-2-(2-(3-acetyl-5-(2-methylpyrimidin-5-yl)-1H-indazol-1-yl)acetyl)-N-(6-bromo-3-methylpyridin-2-yl)-2-azabicyclo[3.1.0]hexane-3-carboxamide] | < 1 µM
11 | CC(=O)c1nn(CC(=O)N2[C@H](C(=O)Nc3nc(Br)ccc3C)C[C@@]3(CN(C)C)C[C@@H]23)c2c(C#N)cc(-c3cnc(C)nc3)cc12 [Compound 143, (1R,3S,5R)-2-(2-(3-Acetyl-7-cyano-5-(2-methylpyrimidin-5-yl)-1H-indazol-1-yl)acetyl)-N-(6-bromo-3-methylpyridin-2-yl)-5-((dimethylamino)methyl)-2-azabicyclo[3.1.0]hexane-3-carboxamide] | < 1 µM
12 | CC(=O)c1nn(CC(=O)N2[C@H]3C[C@@]3(CN(C)C)C[C@H]2C(=O)Nc2nc(Br)ccc2C)c2c(C#N)cc(-c3cnc(C)nc3)cc12 [Compound 144, (1S,3S)-2-(2-(3-acetyl-7-cyano-5-(2-methylpyrimidin-5-yl)-1H-indazol-1-yl)acetyl)-N-(6-bromo-3-methylpyridin-2-yl)-5-((dimethylamino)methyl)-2-azabicyclo[3.1.0]hexane-3-carboxamide] | 1 to 10 µM
13 | Cc1ncc(-c2ccc3c(c(C(N)=O)nn3CC(=O)N3[C@H](C(=O)Nc4nc(Br)ccc4C)C[C@@]4(C)C[C@@H]34)c2F)cn1 [Compound 145, 1-(2-((1R,3S,5R)-3-((6-Bromo-3-methylpyridin-2-yl)carbamoyl)-5-methyl-2-azabicyclo[3.1.0]hexan-2-yl)-2-oxoethyl)-4-fluoro-5-(2-methylpyrimidin-5-yl)-1H-indazole-3-carboxamide] | < 1 µM
14 | CC(=O)c1nn(CC(=O)N2[C@H](C(=O)Nc3nc(Br)ccc3C)C[C@@]3(C)C[C@@H]23)c2c(C(F)F)cc(-c3cnc(C)nc3)cc12 [Compound 146, (1R,3S,5R)-2-(2-(3-Acetyl-7-(difluoromethyl)-5-(2-methylpyrimidin-5-yl)-1H-indazol-1-yl)acetyl)-N-(6-bromo-3-methylpyridin-2-yl)-5-methyl-2-azabicyclo[3.1.0]hexane-3-carboxamide] | < 1 µM
15 | CC(=O)c1nn(CC(=O)N2[C@H](C(=O)Nc3nc(Br)ccc3C)C[C@@]3(C)C[C@@H]23)c2c(F)cc(-c3cnc(C)nc3)cc12 [Compound 147, (1R,3S,5R)-2-(2-(3-Acetyl-7-fluoro-5-(2-methylpyrimidin-5-yl)-1H-indazol-1-yl)acetyl)-N-(6-bromo-3-methylpyridin-2-yl)-5-methyl-2-azabicyclo[3.1.0]hexane-3-carboxamide] | < 1 µM
16 | CC(=O)c1nn(CC(=O)N2[C@H](C(=O)Nc3nc(Br)ccc3C)C[C@@]3(C)C[C@@H]23)c2ccc(-c3cnc(CC(=O)N(C)C)nc3)cc12 [Compound 148, (1R,3S,5R)-2-(2-(3-Acetyl-5-(2-(2-(dimethylamino)-2-oxoethyl)pyrimidin-5-yl)-1H-indazol-1-yl)acetyl)-N-(6-bromo-3-methylpyridin-2-yl)-5-methyl-2-azabicyclo[3.1.0]hexane-3-carboxamide] | < 1 µM
17 | CC(=O)c1nn(CC(=O)N2[C@H](C(=O)Nc3nc(Br)ccc3C)C[C@@]3(CN4CCC4)C[C@@H]23)c2c(C)cc(-c3cnc(C)nc3)cc12 [Compound 149, (1R,3S,5R)-2-(2-(3-Acetyl-7-methyl-5-(2-methylpyrimidin-5-yl)-1H-indazol-1-yl)acetyl)-5-(azetidin-1-ylmethyl)-N-(6-bromo-3-methylpyridin-2-yl)-2-azabicyclo[3.1.0]hexane-3-carboxamide] | < 1 µM
18 | CC(=O)c1nn(CC(=O)N2[C@H](C(=O)Nc3nc(Br)ccc3C)C[C@@]3(CN4CC(F)(F)C4)C[C@@H]23)c2c(C)cc(-c3cnc(C)nc3)cc12 [Compound 150, (1R,3S,5R)-2-(2-(3-Acetyl-7-methyl-5-(2-methylpyrimidin-5-yl)-1H-indazol-1-yl)acetyl)-N-(6-bromo-3-methylpyridin-2-yl)-5-((3,3-difluoroazetidin-1-yl)methyl)-2-azabicyclo[3.1.0]hexane-3-carboxamide] | < 1 µM
19 | CC(=O)c1nn(CC(=O)N2[C@H](C(=O)Nc3nc(Br)ccc3C)C[C@@]3(CNC4CC4)C[C@@H]23)c2ccc(-c3cnc(C)nc3)cc12 [Compound 151, (1R,3S,5R)-2-(2-(3-Acetyl-5-(2-methylpyrimidin-5-yl)-1H-indazol-1-yl)acetyl)-N-(6-bromo-3-methylpyridin-2-yl)-5-((cyclopropylamino)methyl)-2-azabicyclo[3.1.0]hexane-3-carboxamide] | < 1 µM
20 | COCc1ccc(Br)nc1NC(=O)[C@@H]1C[C@@]2(COC)C[C@H]2N1C(=O)Cn1nc(C(C)=O)c2cc(-c3cnc(C)nc3)ccc21 [Compound 152, (1R,3S,5S)-2-(2-(3-Acetyl-5-(2-methylpyrimidin-5-yl)-1H-indazol-1-yl)acetyl)-N-(6-bromo-3-(methoxymethyl)pyridin-2-yl)-5-(methoxymethyl)-2-azabicyclo[3.1.0]hexane-3-carboxamide] | < 1 µM
21 | COCc1ccc(Br)nc1NC(=O)[C@@H]1C[C@@]2(CNC(=O)[C@@H](NC(=O)OC)C(C)C)C[C@H]2N1C(=O)Cn1nc(C(C)=O)c2cc(-c3cnc(C)nc3)ccc21 [Compound 153, Methyl ((S)-1-((((1R,3S,5R)-2-(2-(3-acetyl-5-(2-methylpyrimidin-5-yl)-1H-indazol-1-yl)acetyl)-3-((6-bromo-3-(methoxymethyl)pyridin-2-yl)carbamoyl)-2-azabicyclo[3.1.0]hexan-5-yl)methyl)amino)-3-methyl-1-oxobutan-2-yl)carbamate] | < 1 µM
22 | C=CCOC[C@@]12C[C@@H](C(=O)Nc3nc(Br)ccc3C)N(C(=O)Cn3nc(C(C)=O)c4cc(-c5cnc(C)nc5)cc(CC=C)c43)[C@@H]1C2 [Compound 154, (1R,3S,5S)-2-(2-(3-acetyl-7-allyl-5-(2-methylpyrimidin-5-yl)-1H-indazol-1-yl)acetyl)-5-((allyloxy)methyl)-N-(6-bromo-3-methylpyridin-2-yl)-2-azabicyclo[3.1.0]hexane-3-carboxamide] | < 1 µM
